In a melting point compilation (Tetko et al.; mined from patent text by program, amines drawn as free bases though some values may be those of a salt):

Row | melting point | SMILES
1 | 68 to 70 °C | Nc1ccc(OC(F)F)cc1[N+](=O)[O-]
2 | 164 to 166 °C | CC1=C(CC(=O)O)c2cc(F)ccc2C1
3 | 117 to 119 °C | O=C(O)CCc1ccc(SCCNS(=O)(=O)c2ccc(Cl)cc2)cc1
4 | 95 to 97 °C | COCn1c(-c2nccs2)cc2cccc(NS(=O)(=O)c3cccs3)c21
5 | 196 to 197 °C | CCOCc1nc2c(N)nc3cc(-c4cccnc4)ccc3c2n1Cc1ccc(CNC(=O)OC(C)(C)C)cc1
6 | 233 °C | Cc1nc2c3c(ccc2n1C)C(=O)[C@H](O)[C@@H](c1ccccc1)O3
7 | 133 to 135 °C | FC(F)(F)c1ccc(-n2ccc3c(Cl)nccc32)c(Cl)c1
8 | 88 to 89 °C | CC(=O)C(=O)N1CCC[C@H]1C(=O)O
9 | 85 to 90 °C | O=c1c2ccccc2ccn1CCC#Cc1ccccn1
10 | 170 to 171 °C | CC(C)(C)OC(=O)NNC(=O)c1ncc(OCc2ccccc2)c(OCc2ccccc2)c1CCl
11 | 173 to 174 °C | CCCc1nc2c(N)nc3cc(OCCCN)ccc3c2n1CC(C)C
12 | 166 to 167 °C | O=C(O)C1c2ccccc2COc2ccc(Br)cc21 (stereo unspecified)
13 | 120 to 121 °C | COC(=O)C(C)=Cc1cc(NC(=S)N2CCCCN2)ccc1Cl
14 | 182 to 184 °C | CCc1nn(C2CCCC2)c2cc(C(=O)NCC(=O)O)ccc12
15 | 56 to 59 °C | CCCc1cc(COc2cc(C)nc(C)c2OC)ccc1-c1ccccc1S(=O)(=O)Nc1noc(C)c1C
16 | 103 to 105 °C | CCCCOc1cc(CCC(=O)O)ccc1-c1cccc(CN(C)C(=O)c2ccccc2)c1
17 | 108 to 110 °C | NC(=O)COC(=O)c1c(F)cccc1F
18 | 164 to 165 °C | COc1cncnc1N1CCN(CCCc2c[nH]c3ccc(CN(C)S(C)(=O)=O)cc23)CC1
19 | 135 to 138 °C | Cc1noc(NS(=O)(=O)c2cc(Cl)c(Cl)s2)c1Br
20 | 78 to 81 °C | CNC(C)C/C=C/c1cnc(N)c(C)c1 (stereo unspecified)
21 | 127 to 128 °C | COc1ccc(N2C(=O)O[C@H](COc3ccc(C#N)cc3)[C@@H]2C)cc1
22 | 157 to 159 °C | CCOc1ccc(N=c2ccn3ccccc3c2)cc1
23 | 148 to 150 °C | COc1ccc2c(c1)NC(=O)C(Cl)(Cl)CC2
24 | 138 °C | CCN(CC)c1ccc(C2(c3c(C)n(CC)c4ccccc34)OC(=O)c3ccccc32)c(OCc2ccccc2)c1 (stereo unspecified)

Row | melting point | SMILES
25 | > 310 °C | CC(=O)Nc1cc2c3c(c1)c(=O)c(C(=O)O)cn3C(C)CC2 (stereo unspecified)
26 | 209 to 213 °C | Cc1ccc2c(c1)NC(=O)c1cscc1O2
27 | 255 to 256 °C | Nc1ncc(-c2ccnc(N3CCOCC3)n2)c2ccccc12
28 | 194 °C | Oc1cc(-c2ccc(Cl)cc2F)n[nH]1
29 | 140 to 141 °C | CSc1nc(C)ccc1NC(=O)CCCCCSc1nc2ccccc2o1
30 | 89 to 92 °C | COc1ccc(S(=O)(=O)C(CC=C(C)C)(Cc2cccnc2)C(=O)NO)cc1 (stereo unspecified)
31 | 120 to 122 °C | Cc1ccc(S(=O)(=O)OCC2Cc3cccc(Br)c3O2)cc1 (stereo unspecified)
32 | 83 to 85 °C | CCOC(=O)OCSCC1=C(C(=O)OCC)C(c2cccc([N+](=O)[O-])c2)C(C(=O)OCC)=C(C)N1 (stereo unspecified)
33 | 290 to 297 °C | COc1cc2[nH]c(=O)c3c(c2cc1OC)CCN(C(=O)c1ccccc1)C3
34 | 189 to 190 °C | O=c1nc(C2CC2)c2cc(-c3cccc(Cl)c3)ccc2[nH]1
35 | 108 to 109 °C | CCS(=O)(=O)CCC(=O)NCC(=O)N1Cc2ccccc2Oc2ccc(Cl)cc21
36 | 55 to 56 °C | CCCCN(Sc1nc2ccccc2s1)C(C)(C)C
37 | 31 to 32 °C | CCCCCc1ccc(Br)nn1
38 | 143 to 144 °C | Cc1nn(-c2ccc(C(F)(F)F)cn2)cc1CCCOc1cc(CC(=O)O)n(C)n1
39 | 94 to 96 °C | CCCCC1OC(=O)c2cc(N)c(N)cc21 (stereo unspecified)
40 | 218 to 219 °C | Oc1ccc(-c2cc3ccccc3cn2)cc1
41 | 39 to 39.5 °C | CNc1cc(F)ccc1C(=O)OC
42 | 208 °C | N#Cc1cnn2cccc2c1NC1(c2ccc(Cl)cc2Cl)CC1
43 | 229 to 230 °C | Cn1cc(C(=O)NCc2ccc(Cl)cc2)c(=O)c2cc(CO)oc21
44 | 147 to 148 °C | Cc1ncc([N+](=O)[O-])n1CCN1C(=O)CCC1=O
45 | 179 to 181 °C | N#CCOc1ccc2cc(-c3cc4ccccc4s3)ccc2c1Br
46 | 130 to 132 °C | CCCCOc1nc(-c2ccc(=O)n(C(C)C)n2)c(-c2ccccc2)nc1N
47 | 236 to 237 °C | Cc1sc2cc(O)ccc2c1C1=C(c2c(C)sc3cc(O)ccc23)C(F)(F)C(F)(F)C1(F)F
48 | 54 to 57 °C | COP(=O)(Cc1nc(C)c(C)o1)OC

Row | melting point | SMILES
49 | 67 to 69 °C | CC(=O)Cc1ccc(C#CC(C)(C)O)cc1
50 | 96 °C | CC(C)(C)OC(=O)C(Nc1ccccc1)c1cccc(Cl)c1 (racemic)
51 | 148 to 151 °C | CCCNC(=O)C1(CCCc2ccc(N3C(=O)c4ccccc4C3=O)cc2)c2ccccc2-c2ccccc21
52 | 72 to 74 °C | C=CC(=Cc1ccccc1)N(C)C
53 | 105 to 108 °C | Cc1cc(Cl)ccc1NC(=O)C(=O)N1CCC(Cc2ccccc2)CC1
54 | 75 to 78 °C | OCCC1(CCO)CCN(Cc2ccccc2)CC1
55 | 281 to 283 °C | Cc1[nH]n(C2CCCC2O)c2nc(-c3ccncc3)nc(=O)c1-2 (stereo unspecified)
56 | 108 to 112 °C | Cc1cc(Cn2nnn(-c3ccc(C(F)(F)F)cc3)c2=O)ccc1NC(=O)c1cccc(I)c1C(=O)NC(C)(C)CS(C)(=O)=O
57 | 65 to 66 °C | CC(C)c1ccn2nc(SCc3ccccc3)nc2n1
58 | 148 °C | Cc1cccc2c(=O)cc(N3CCOCC3)oc12
59 | 82 to 84 °C | COc1ccc(Br)cc1C(C)(C)CCl
60 | 124 to 127 °C | O=C(O)Cc1ccc(-c2ccc(C(CC3CCOCC3)c3ccc(S(=O)(=O)C4CC4)cc3)[nH]2)nc1 (stereo unspecified)
61 | 209 to 211 °C | Cc1c(C)c(N2C(=O)c3ccccc3C2=O)c(C)c2c1OC(C)(C)C2c1ccc(F)cc1 (stereo unspecified)
62 | 67 to 68 °C | Cc1nc2cc(OCCO)ccc2s1
63 | 127 to 129 °C | COC(=O)C(=O)c1ccc(OCCOc2ccc3ccccc3c2)c([N+](=O)[O-])c1
64 | 83 °C | COC(=O)Cn1ccc2ccc(-c3csc(-c4ccccc4)n3)cc21
65 | 82 °C | CC(C(=O)NCCCC(F)(F)F)(c1ccccc1)c1ccccc1
66 | 95 to 97 °C | Cc1cc(F)ccc1-c1cccc(C(=O)Nc2ccc(OCCN3CCOCC3)c3ccccc23)c1
67 | 169 to 171 °C | CC(=C(C#N)C#N)c1ccc2cc(N3CCN(C(=O)OC(C)(C)C)CC3)ccc2c1
68 | 128 to 129 °C | O=C1c2ccccc2C(=O)N1CC(=CBr)c1ccccc1
69 | 226 to 228 °C | COc1ccc(-c2cnn(-c3ccc(N4C[C@H](CNC(C)=O)OC4=O)cc3F)c2)cc1
70 | 74 to 75 °C | CCCCCCCCCCNC(=O)CCCO
71 | 128 to 131 °C | CCCCNC(=O)c1ccc2c(c1)[C@H]1OCCN(CCC)[C@@H]1CC2 (relative stereo)
72 | 72 to 74 °C | CC(=O)CCCCCCCC(=O)c1ccc(OCc2ccccc2)c(OCc2ccccc2)c1

Row | melting point | SMILES
73 | 129 to 130 °C | N#Cc1ccc(OCCCCOc2cccc(-c3cc4ccc(C#N)cc4o3)c2)cc1
74 | 74 to 77 °C | Clc1ccc(C2=NOCCS2)s1
75 | 102 to 104 °C | O=S(=O)(c1ccccc1)C1CCC(COc2ccc(F)cc2)O1 (racemic)
76 | 98 to 100 °C | CC(=O)Nc1cccc2c1SCC=C2
77 | 158 to 160 °C | COC(=O)C1CCC2C3CCC4CC(OS(=O)(=O)c5ccc(C)cc5)CCC4(C)C3C(=O)CC12C (stereo unspecified)
78 | 111 to 113 °C | CCOC(=O)C1Cc2c(ccc(OC)c2OCc2ccccc2)CN1C(=O)C(c1ccccc1)c1ccccc1 (racemic)
79 | 104 to 106 °C | O=c1cc(C(F)(F)F)c2ccc(NCCc3ccccc3)nc2o1
80 | 161 to 162 °C | O=C(NS(=O)(=O)c1ccccc1)c1cccc(C[C@@H]2COc3ccc(OCc4nc5cc(F)ccc5s4)cc3[C@@H]2O)c1
81 | 139 to 142 °C | COCC(Oc1ccc(-n2nnc3cc(C(F)(F)F)ccc32)cc1)C(=O)O (stereo unspecified)
82 | 119 to 120 °C | CC(O)c1ccc(Cc2c(Cl)cc(N3N=CCNC3=O)cc2Cl)cc1 (stereo unspecified)
83 | 200 °C | COCn1cc(C2=C(C#N)C(c3cccc4nonc34)c3c[nH]nc3N2)c2ccccc21 (stereo unspecified)
84 | 55 to 58 °C | O=S(=O)(CCCCl)c1ccccc1
85 | 147 to 150 °C | Oc1ccc2c(c1)C[C@@H](NC[C@H](O)c1ccc(OCc3ccccc3)c(CCOCc3ccccc3)c1)CC2
86 | 112 to 114 °C | CO/N=C(\C(=O)O)c1ccccc1COc1cc(C)ccc1C
87 | 157 to 159 °C | S=C(Nc1cnccc1NC1CCCCC1)NC1CCCCC1
88 | 140 to 141 °C | O=C(O)CCC(=O)c1ccc(C2CCCCC2)cc1
89 | 58 to 59 °C | CCN(CC)CC1=Cc2ccc(Cl)cc2S1(=O)=O
90 | 196 °C | O=C(O)C(c1ccc(Cl)cc1)c1ccc(-n2ncc(=O)[nH]c2=O)cc1Cl (stereo unspecified)
91 | 86 to 87 °C | O=[N+]([O-])c1cc(C(F)(F)F)c(Cl)c([N+](=O)[O-])c1NC1CC1
92 | > 150 °C | CC(C)(C)c1ccc(-c2snnc2S)cc1
93 | 119 to 120 °C | Cc1oc(-c2ccccc2)nc1CCCc1ccc(CCCC2OC(=O)NC2=O)cc1 (stereo unspecified)
94 | 215 °C | NC(=O)c1sc2nc(N3CCC(NCC(O)c4cccc(F)c4)CC3)cc(C(F)(F)F)c2c1N (stereo unspecified)

Row | SMILES | melting point
95 | CC(=O)Oc1cccc(C2(N(C)C)CCC(=O)CC2)c1 | 51 to 53 °C
96 | CCCN1CCc2c(c(Br)cc([N+](=O)[O-])c2NC(C)=O)C1 | 166 to 167 °C
97 | CCCCCC(=O)OCC(=O)C1CC2c3cccc4[nH]cc(c34)CC2N(C)C1 (stereo unspecified) | 135 to 137 °C
98 | NC(=O)NC(=O)NCc1ccc(CNC(=O)[C@@H](CCCNC(N)=N[N+](=O)[O-])NC(=O)C(c2ccccc2)c2ccccc2)cc1 | 214 to 218 °C
99 | CN1C(=O)[C@H](NC(=O)CCc2ccc(Cl)cc2Cl)N=C(c2ccccc2N)c2cc(N)ccc21 | 188 to 189 °C
100 | Cn1c(=O)c2c(ncn2CCN2CC=C(c3c[nH]c4ccccc34)CC2)n(C)c1=O | 196 °C
101 | CCN(CCc1c[nH]c2ccc(F)cc12)C1COc2c(F)ccc(C(=O)NC)c2C1 (stereo unspecified) | 125 °C
